Laboratory results published in ChEMBL document CHEMBL2440076, “New triarylpyrazoles as broad-spectrum anticancer agents: design, synthesis, and biological evaluation” (Eur J Med Chem, 2013).

Columns and labels:
Format in all cases: functional
UO-31 = assay: Growth inhibition of human UO31 cells assessed as cell growth at 10^-4 M after 48 hrs by sulforhodamine B assay; settings: UO-31, 48 h, read-out: Activity
HL-60(TB) = assay: Growth inhibition of human HL-60(TB) cells assessed as cell growth at 10^-8 M after 48 hrs by sulforhodamine B assay; settings: HL-60, 48 h, read-out: Activity
RPMI-8226 = assay: Growth inhibition of human RPMI8226 cells assessed as cell growth at 10^-4 M after 48 hrs by sulforhodamine B assay; settings: RPMI-8226, 48 h, read-out: Activity
SF-295 [1] = assay: Growth inhibition of human SF295 cells assessed as cell growth at 10^-8 M after 48 hrs by sulforhodamine B assay; settings: SF-295, 48 h, read-out: Activity
SF-295 [2] = assay: Growth inhibition of human SF295 cells assessed as cell growth at 10^-5 M after 48 hrs by sulforhodamine B assay; settings: SF-295, 48 h, read-out: Activity
SF-539 [3] = assay: Growth inhibition of human SF539 cells assessed as cell growth at 10^-5 M after 48 hrs by sulforhodamine B assay; settings: SF-539, 48 h, read-out: Activity
MDA-MB-468 [4] = assay: Growth inhibition of human MDA-MB-468 cells assessed as cell growth at 10^-6 M after 48 hrs by sulforhodamine B assay; settings: MDA-MB-468, 48 h, read-out: Activity
K562 = assay: Growth inhibition of human K562 cells assessed as cell growth at 10^-8 M after 48 hrs by sulforhodamine B assay; settings: K562, 48 h, read-out: Activity
786-0 = assay: Growth inhibition of human 786-0 cells assessed as cell growth at 10^-5 M after 48 hrs by sulforhodamine B assay; settings: 786-0, 48 h, read-out: Activity
KM12 [5] = assay: Growth inhibition of human KM12 cells assessed as cell growth at 10^-7 M after 48 hrs by sulforhodamine B assay; settings: KM12, 48 h, read-out: Activity
MOLT-4 = assay: Growth inhibition of human MOLT4 cells assessed as cell growth at 10^-6 M after 48 hrs by sulforhodamine B assay; settings: MOLT-4, 48 h, read-out: Activity
[6] = Growth inhibition of human HCC2998 cells assessed as cell growth at 10^-7 M after 48 hrs by sulforhodamine B assay; settings: HCC 2998, 48 h, read-out: Activity
ACHN = assay: Growth inhibition of human ACHN cells assessed as cell growth at 10^-8 M after 48 hrs by sulforhodamine B assay; settings: read-out: Activity
SK-MEL-2 = assay: Growth inhibition of human SK-MEL-2 cells assessed as cell growth at 10^-8 M after 48 hrs by sulforhodamine B assay; settings: SK-MEL-2, 48 h, read-out: Activity
SF-295 [7] = assay: Growth inhibition of human SF295 cells assessed as cell growth at 10^-7 M after 48 hrs by sulforhodamine B assay; settings: SF-295, 48 h, read-out: Activity
HCT-116 = assay: Growth inhibition of human HCT116 cells assessed as cell growth at 10^-4 M after 48 hrs by sulforhodamine B assay; settings: HCT-116, 48 h, read-out: Activity
MDA-MB-435 = assay: Growth inhibition of human MDA-MB-435 cells assessed as cell growth at 10^-4 M after 48 hrs by sulforhodamine B assay; settings: MDA-MB-435, 48 h, read-out: Activity
LOX IMVI = assay: Growth inhibition of human LOXIMVI cells assessed as cell growth at 10^-4 M after 48 hrs by sulforhodamine B assay; settings: read-out: Activity
HCT-15 = assay: Growth inhibition of human HCT15 cells assessed as cell growth at 10^-8 M after 48 hrs by sulforhodamine B assay; settings: HCT-15, 48 h, read-out: Activity
NCI-H460 = assay: Growth inhibition of human NCI-H460 cells assessed as cell growth at 10^-6 M after 48 hrs by sulforhodamine B assay; settings: NCI-H460, 48 h, read-out: Activity
DU-145 = assay: Growth inhibition of human DU145 cells assessed as cell growth at 10^-7 M after 48 hrs by sulforhodamine B assay; settings: DU-145, 48 h, read-out: Activity
M14 [8] = assay: Growth inhibition of human M14 cells assessed as cell growth at 10^-8 M after 48 hrs by sulforhodamine B assay; settings: M14, 48 h, read-out: Activity
Malme-3M = assay: Growth inhibition of human MALME-3M cells assessed as cell growth at 10^-6 M after 48 hrs by sulforhodamine B assay; settings: read-out: Activity
[9] = Growth inhibition of human Hs 578T cells assessed as cell growth at 10^-4 M after 48 hrs by sulforhodamine B assay; settings: read-out: Activity
CCRF-CEM = assay: Growth inhibition of human CCRF-CEM cells assessed as cell growth at 10^-8 M after 48 hrs by sulforhodamine B assay; settings: read-out: Activity
SF-539 [10] = assay: Growth inhibition of human SF539 cells assessed as cell growth at 10^-7 M after 48 hrs by sulforhodamine B assay; settings: SF-539, 48 h, read-out: Activity
OVCAR-8 [11] = assay: Growth inhibition of human OVCAR8 cells assessed as cell growth at 10^-5 M after 48 hrs by sulforhodamine B assay; settings: OVCAR-8, 48 h, read-out: Activity
SW-620 [12] = assay: Growth inhibition of human SW620 cells assessed as cell growth at 10^-4 M after 48 hrs by sulforhodamine B assay; settings: SW-620, 48 h, read-out: Activity
KM12 [13] = assay: Growth inhibition of human KM12 cells assessed as cell growth at 10^-6 M after 48 hrs by sulforhodamine B assay; settings: KM12, 48 h, read-out: Activity
RXF 393 = assay: Growth inhibition of human RXF393 cells assessed as cell growth at 10^-8 M after 48 hrs by sulforhodamine B assay; settings: RXF 393, 48 h, read-out: Activity
M14 [14] = assay: Growth inhibition of human M14 cells assessed as cell growth at 10^-4 M after 48 hrs by sulforhodamine B assay; settings: M14, 48 h, read-out: Activity
NCI-H322M = assay: Growth inhibition of human NCI-H322M cells assessed as cell growth at 10^-8 M after 48 hrs by sulforhodamine B assay; settings: read-out: Activity
OVCAR-8 [15] = assay: Growth inhibition of human OVCAR8 cells assessed as cell growth at 10^-8 M after 48 hrs by sulforhodamine B assay; settings: OVCAR-8, 48 h, read-out: Activity
OVCAR-8 [16] = assay: Growth inhibition of human OVCAR8 cells assessed as cell growth at 10^-6 M after 48 hrs by sulforhodamine B assay; settings: OVCAR-8, 48 h, read-out: Activity
CAKI-1 = assay: Growth inhibition of human CAKI-1 cells assessed as cell growth at 10^-4 M after 48 hrs by sulforhodamine B assay; settings: CAKI-1, 48 h, read-out: Activity
SF-539 [17] = assay: Growth inhibition of human SF539 cells assessed as cell growth at 10^-8 M after 48 hrs by sulforhodamine B assay; settings: SF-539, 48 h, read-out: Activity
MDA-MB-468 [18] = assay: Growth inhibition of human MDA-MB-468 cells assessed as cell growth at 10^-4 M after 48 hrs by sulforhodamine B assay; settings: MDA-MB-468, 48 h, read-out: Activity
SW-620 [19] = assay: Growth inhibition of human SW620 cells assessed as cell growth at 10^-6 M after 48 hrs by sulforhodamine B assay; settings: SW-620, 48 h, read-out: Activity

SMILES | growth at 100 µM (UO-31) [%] | growth at 0.01 µM (HL-60(TB)) [%] | growth at 100 µM (RPMI-8226) [%] | growth at 0.01 µM (SF-295 [1]) [%] | growth at 10 µM (SF-295 [2]) [%] | growth at 10 µM (SF-539 [3]) [%] | growth at 1 µM (MDA-MB-468 [4]) [%] | growth at 0.01 µM (K562) [%] | growth at 10 µM (786-0) [%] | growth at 0.1 µM (KM12 [5]) [%] | growth at 1 µM (MOLT-4) [%] | growth at 0.1 µM [6] [%] | growth at 0.01 µM (ACHN) [%] | growth at 0.01 µM (SK-MEL-2) [%] | growth at 0.1 µM (SF-295 [7]) [%] | growth at 100 µM (HCT-116) [%] | growth at 100 µM (MDA-MB-435) [%] | growth at 100 µM (LOX IMVI) [%] | growth at 0.01 µM (HCT-15) [%] | growth at 1 µM (NCI-H460) [%] | also measured
COc1cc(-c2nn(-c3cccc(NC(=O)c4ccc(N5CCOCC5)c(C(F)(F)F)c4)c3)cc2-c2ccncc2)ccc1Cl | -13 | 109 | 6 | 89 | -64 | -54 | -9 | 99 | -14 | 64 | 38 | 92 | 102 | 111 | 60 | 2 | -34 | -34 | 98 | 16 | growth at 0.1 µM (DU-145): 98%; growth at 0.01 µM (M14 [8]): 98%; growth at 1 µM (Malme-3M): 33%; growth at 100 µM [9]: 14%; growth at 0.01 µM (CCRF-CEM): 94%; growth at 0.1 µM (SF-539 [10]): 68%; growth at 10 µM (OVCAR-8 [11]): 3%; growth at 100 µM (SW-620 [12]): 10%; growth at 1 µM (KM12 [13]): 28%; growth at 0.01 µM (RXF 393): 118%; growth at 100 µM (M14 [14]): -30%; growth at 0.01 µM (NCI-H322M): 103%; growth at 0.01 µM (OVCAR-8 [15]): 98%; growth at 1 µM (OVCAR-8 [16]): 30%; growth at 100 µM (CAKI-1): -4%; growth at 0.01 µM (SF-539 [17]): 93%; growth at 100 µM (MDA-MB-468 [18]): -53%; growth at 1 µM (SW-620 [19]): 36%
COc1cc(-c2nn(-c3cccc(NC(=O)c4ccccc4)c3)cc2-c2ccncc2)ccc1Cl | 24 | 96 | 21 | 93 | -27 | -25 | 17 | 102 | 24 | 91 | 41 | 100 | 101 | 93 | 90 | 9 | -67 | 7 | 97 | 17 | growth at 0.1 µM (DU-145): 100%; growth at 0.01 µM (M14 [8]): 95%; growth at 1 µM (Malme-3M): 38%; growth at 100 µM [9]: 32%; growth at 0.01 µM (CCRF-CEM): 97%; growth at 0.1 µM (SF-539 [10]): 91%; growth at 10 µM (OVCAR-8 [11]): 58%; growth at 100 µM (SW-620 [12]): 14%; growth at 1 µM (KM12 [13]): 36%; growth at 0.01 µM (RXF 393): 100%; growth at 100 µM (M14 [14]): -41%; growth at 0.01 µM (NCI-H322M): 98%; growth at 0.01 µM (OVCAR-8 [15]): 98%; growth at 1 µM (OVCAR-8 [16]): 50%; growth at 100 µM (CAKI-1): 7%; growth at 0.01 µM (SF-539 [17]): 91%; growth at 100 µM (MDA-MB-468 [18]): -27%; growth at 1 µM (SW-620 [19]): 35%
